Source: US9980943B2, “Methods of treating muscular dystrophy” (BOARD OF REGENTS OF THE NEVADA SYSTEM OF HIGHER EDUCATION, …, priority 2013, dated 2018)

What was measured:
Assay type in all cases: cell-based, mouse
[1] = test system: α7 integrin (LacZ reporter in α7+/LacZ myotubes); assay: Myotube α7 integrin FDG assay (Burkin assay in myotubes, 96-well); conditions: myotubes
[2] = test system: β-galactosidase in CMV-LacZ C2C12 myotubes; assay: CMV-LacZ secondary screen in C2C12 myotubes (β-Gal stabilizing assay); conditions: for CMV-LACZ in Myotubes (β-galactosidase activity relative to DMSO): CMV-LacZ C2C12 myotubes, 96-well format
Excerpt: In order to determine compounds that acted to stabilize β-gal in myogenic cells, a CMV-LacZ C2C12 cell line was used in a secondary screen. The EGFP gene from the pEGFP (Clontech) vector was replaced by LACZ PCR product with digests of the vector/PCR product performed using EcoRI (NEB) and NotI (NEB) and ligated using T4 DNA Ligase (NEB) following standard procedures to produce the CMV-LACZ vector. The LACZ gene was generated by PCR from the pBK-RSV (Stratagene) vector using primers LACZ EcoRI F- and LACZ NotI R-. The CMV-LACZ vector was then digested with AfIII (NEB) to linearize the construct, which was then transfected in C2C12 myoblasts using Lipofectamine 2000 (Invitrogen) following the manufacturer's instructions. […] Clonal lines were selected and screened for βgal levels using the myoblast FDG assay.
The assays were used the original 96-well format and new dose-response curves for myoblasts (N=3-6 replicates for each data point), myotubes (N=3-6 replicates for data point), and CMV-LacZ secondary assay (N=2 replicates for each data point) using concentrations of 0.5 μM, 1 μM, 5 μM, 10 μM, 20 μM, and 40 μM (Tables 9-16).

[3] = test system: α7 integrin (LacZ reporter in α7βgal+/− myoblasts); assay: Myoblast α7+/LacZ integrin FDG assay (Burkin assay in myoblasts, 96-well); conditions: α7+/LacZ myoblasts, 96-well
[4] = 5 uM, C2C12 CMV-LacZ myotubes, fold relative to DMSO
[5] = 10 uM, C2C12 CMV-LacZ myotubes, fold relative to DMSO
[6] = 20 uM, C2C12 CMV-LacZ myotubes, fold relative to DMSO
[7] = 40 uM, C2C12 CMV-LacZ myotubes, fold relative to DMSO

Row | Compound | Burkin Assay in Myotubes (signal relative to DMSO) ([1]; 0.5 uM) | Burkin Assay in Myotubes (signal relative to DMSO) ([1]; 1 uM) | Burkin Assay in Myotubes (signal relative to DMSO) ([1]; 5 uM) | Burkin Assay in Myotubes (signal relative to DMSO) ([1]; 10 uM) | Burkin Assay in Myotubes (signal relative to DMSO) ([1]; 20 uM) | Burkin Assay in Myotubes (signal relative to DMSO) ([1]; 40 uM) | CMV-LACZ in Myotubes (β-galactosidase activity relative to DMSO) ([2]; 5 uM) | CMV-LACZ in Myotubes (β-galactosidase activity relative to DMSO) ([2]; 10 uM) | CMV-LACZ in Myotubes (β-galactosidase activity relative to DMSO) ([2]; 20 uM) | CMV-LACZ in Myotubes (β-galactosidase activity relative to DMSO) ([2]; 40 uM) | Burkin Assay in Myoblasts, value relative to DMSO ([3]; 0.5 uM) | Burkin Assay in Myoblasts, value relative to DMSO ([3]; 1 uM) | Burkin Assay in Myoblasts, value relative to DMSO ([3]; 5 uM) | Burkin Assay in Myoblasts, value relative to DMSO ([3]; 10 uM) | Burkin Assay in Myoblasts, value relative to DMSO ([3]; 20 uM) | Burkin Assay in Myoblasts, value relative to DMSO ([3]; 40 uM) | CMV-LACZ in Myotubes, signal relative to DMSO [2, 4] | CMV-LACZ in Myotubes, signal relative to DMSO [2, 5] | CMV-LACZ in Myotubes, signal relative to DMSO [2, 6] | CMV-LACZ in Myotubes, signal relative to DMSO [2, 7] | other results
1 | O=C(NCc1ccccc1)C(c1ccc(O)cc1)N(C(=O)Cn1nnc(-c2cccs2)n1)c1ccc2c(c1)OCCO2 (stereo not shown) [MLS000123454-01] | 1.067 | 0.8963 | 1.047 | 1.083 | 0.6841 | 0.8852 | 0.9353 | 0.9323 | 0.8796 | 1.055 | 0.8934 | 0.8234 | 0.7862 | 0.8621 | 1.519 | 1.013 | – | – | – | – | –
2 | Cc1cccc(OCc2nc(C#N)c(N3CCCC3)o2)c1 [MLS000332693-01] | 1.0441 | 0.9631 | 1.092 | 0.9798 | 0.9709 | 0.9252 | 1.244 | 0.9794 | 0.8804 | 0.9304 | 1.04 | 0.9937 | 1.068 | 1.095 | 0.895 | 0.9225 | – | – | – | – | –
3 | Cc1ccccc1OCC(=O)Nc1nnc(-c2ccco2)s1 [MLS000333610-01] | – | – | – | – | – | – | – | – | – | – | – | – | – | – | – | – | 0.832 | 0.7867 | 0.9429 | 0.9948 | Burkin Assay in Myotubes, α7 integrin LacZ reporter signal relative to DMSO ([1]; 0.5 uM): 0.986; Burkin Assay in Myotubes, α7 integrin LacZ reporter signal relative to DMSO ([1]; 1 uM): 1.039; Burkin Assay in Myotubes, α7 integrin LacZ reporter signal relative to DMSO ([1]; 5 uM): 1.003; Burkin Assay in Myotubes, α7 integrin LacZ reporter signal relative to DMSO ([1]; 10 uM): 0.9932; Burkin Assay in Myotubes, α7 integrin LacZ reporter signal relative to DMSO ([1]; 20 uM): 0.8742; Burkin Assay in Myotubes, α7 integrin LacZ reporter signal relative to DMSO ([1]; 40 uM): 0.9096; Burkin Assay in Myoblasts, signal relative to DMSO ([3]; 0.5 uM): 0.8664; Burkin Assay in Myoblasts, signal relative to DMSO ([3]; 1 uM): 0.9253; Burkin Assay in Myoblasts, signal relative to DMSO ([3]; 5 uM): 1.048; Burkin Assay in Myoblasts, signal relative to DMSO ([3]; 10 uM): 0.9188; Burkin Assay in Myoblasts, signal relative to DMSO ([3]; 20 uM): 0.7975; Burkin Assay in Myoblasts, signal relative to DMSO ([3]; 40 uM): 0.7794
4 | COc1ccccc1NC(=O)CCCc1c[nH]c2ccccc12 [MLS000334464-01] | – | – | – | – | – | – | – | – | – | – | – | – | – | – | – | – | – | – | – | – | fold induction at 0.5 µM ([1]; Mus musculus, Myotube, 0.5 uM, read-out: Burkin Assay in Myotubes (signal relative to DMSO)): 0.986; fold induction at 1 µM ([1]; Mus musculus, Myotube, 1 uM, read-out: Burkin Assay in Myotubes (signal relative to DMSO)): 0.88; fold induction at 5 µM ([1]; Mus musculus, Myotube, 5 uM, read-out: Burkin Assay in Myotubes (signal relative to DMSO)): 1; fold induction at 10 µM ([1]; Mus musculus, Myotube, 10 uM, read-out: Burkin Assay in Myotubes (signal relative to DMSO)): 0.992; fold induction at 20 µM ([1]; Mus musculus, Myotube, 20 uM, read-out: Burkin Assay in Myotubes (signal relative to DMSO)): 1.13; fold induction at 40 µM ([1]; Mus musculus, Myotube, 40 uM, read-out: Burkin Assay in Myotubes (signal relative to DMSO)): 0.666; fold induction at 5 µM ([2]; Mus musculus, C2C12, read-out: CMV-LACZ in Myotubes, signal relative to DMSO, 5 uM, C2C12 CMV-LacZ myotubes, fold relative to DMSO): 1.3; fold induction at 10 µM ([2]; Mus musculus, C2C12, read-out: CMV-LACZ in Myotubes, signal relative to DMSO, 10 uM, C2C12 CMV-LacZ myotubes, fold relative to DMSO): 1.08; fold induction at 20 µM ([2]; Mus musculus, C2C12, read-out: CMV-LACZ in Myotubes, signal relative to DMSO, 20 uM, C2C12 CMV-LacZ myotubes, fold relative to DMSO): 0.988; fold induction at 40 µM ([2]; Mus musculus, C2C12, read-out: CMV-LACZ in Myotubes, signal relative to DMSO, 40 uM, C2C12 CMV-LacZ myotubes, fold relative to DMSO): 0.964; fold induction at 0.5 µM ([3]; Mus musculus, Myoblast, 48 h, 0.5 uM, read-out: Burkin Assay in Myoblasts, value relative to DMSO): 1.13; fold induction at 1 µM ([3]; Mus musculus, Myoblast, 48 h, 1 uM, read-out: Burkin Assay in Myoblasts, value relative to DMSO): 1.11; fold induction at 5 µM ([3]; Mus musculus, Myoblast, 48 h, 5 uM, read-out: Burkin Assay in Myoblasts, value relative to DMSO): 1.18; fold induction at 10 µM ([3]; Mus musculus, Myoblast, 48 h, 10 uM, read-out: Burkin Assay in Myoblasts, value relative to DMSO): 1.14; fold induction at 20 µM ([3]; Mus musculus, Myoblast, 48 h, 20 uM, read-out: Burkin Assay in Myoblasts, value relative to DMSO): 0.896; fold induction at 40 µM ([3]; Mus musculus, Myoblast, 48 h, 40 uM, read-out: Burkin Assay in Myoblasts, value relative to DMSO): 1.08
5 | Cc1ccc(-c2csc(Nc3ccc(C(=O)O)cc3)[n+]2Cc2ccccc2)cc1 [MLS000374261-01] | 0.8144 | 0.8386 | 1.131 | 0.9288 | 0.423 | 0.449 | 0.8246 | 0.8319 | 0.448 | 0.5036 | 0.7676 | 0.7758 | 0.7248 | 0.7138 | 0.8376 | 0.8321 | – | – | – | – | –
6 | Cc1ccc(-c2nc(C)sc2CC(=O)OCC(=O)Nc2c(F)cccc2F)cc1 [MLS000388722-01] | 0.9225 | 0.9369 | 1.032 | 1.042 | 0.8001 | 0.9404 | – | – | – | – | 0.93 | 1.1187 | 1.1052 | 1.1175 | 0.9101 | 0.9407 | 0.9569 | 1.067 | 1.085 | 0.8668 | –
7 | CC(OC(=O)c1cc(-c2cccnc2)nc2ccccc12)C(=O)Nc1ccc2ccccc2c1 (stereo not shown) [MLS000389484-01] | – | – | – | – | – | – | – | – | – | – | – | – | – | – | – | – | 0.8524 | 0.8387 | 1.116 | 2.781 | Burkin Assay in Myotubes, α7 integrin LacZ reporter signal relative to DMSO ([1]; 0.5 uM): 0.9292; Burkin Assay in Myotubes, α7 integrin LacZ reporter signal relative to DMSO ([1]; 1 uM): 0.7793; Burkin Assay in Myotubes, α7 integrin LacZ reporter signal relative to DMSO ([1]; 5 uM): 0.8638; Burkin Assay in Myotubes, α7 integrin LacZ reporter signal relative to DMSO ([1]; 10 uM): 0.6433; Burkin Assay in Myotubes, α7 integrin LacZ reporter signal relative to DMSO ([1]; 20 uM): 0.867; Burkin Assay in Myotubes, α7 integrin LacZ reporter signal relative to DMSO ([1]; 40 uM): 0.6946; Burkin Assay in Myoblasts, signal relative to DMSO ([3]; 0.5 uM): 0.7848; Burkin Assay in Myoblasts, signal relative to DMSO ([3]; 1 uM): 0.7672; Burkin Assay in Myoblasts, signal relative to DMSO ([3]; 5 uM): 0.8524; Burkin Assay in Myoblasts, signal relative to DMSO ([3]; 10 uM): 0.8706; Burkin Assay in Myoblasts, signal relative to DMSO ([3]; 20 uM): 0.7331; Burkin Assay in Myoblasts, signal relative to DMSO ([3]; 40 uM): 0.6132
